In patent US9714469B2, “Composition for increasing the lipophobicity of a watch-making component” (Rolex SA, priority 2010, dated 2017):

Assays:
[1] = Contact angle of water drops on coated watch-making surfaces; format: physicochemical; conditions: molecule alone 10^−3 M in IPA, soaking 5 min
Description: (§1) The epilame effect is conventionally evaluated by measuring the contact angle of the lubricants or of a test fluid (water, test liquids NSSC test) on the surface of the component.
(§2) Deposit • Place the watch part or parts in a container with an adapted shape, • Cover the part or parts with coating solution (thiol, BP or BP/thiol-PFPE mixture), • Incubate between 5 minutes and 360 minutes, • Eliminate the supernatant—remove the part, • The part is drip dried (centrifugation).
Dehydration—Rinsing • The part which received the deposit is placed in an oven at 120° C. for a period ranging from 6 to 15 h (only for rubies and silicon), • The part is brought back to room temperature then immersed in IPA under ultrasound for 2 minutes, • The part is dried under a stream of hot air.
Different surfaces were treated with solutions of thiol I.3 and BP II.1 molecules. […]
According to the epilame method described in paragraphs 3 and 5.1, the materials were treated by the mixture of the thiol molecule I.3. with the BP molecule II.1. dissolved in IPA. The contact angles were measured before and after treatment of the surface. […]
(§3) The properties of thiol and bisphosphonate molecules in isolation were measured on the surfaces of steel and gold-plated substrates using solutions at 10^−3 M and in isopropanol in accordance with the protocol described in example 3 above, with a soaking time of 5 minutes.

[2] = Contact angle of test oil on coated watch-making surfaces (epilame effect); format: physicochemical; conditions: for contact angle test oil: molecule alone 10^−3 M in IPA, soaking 5 min; for contact angle of the gold-plated brass part with the test oil: molecule alone at 10^−3 M, soaking 30 min
Description: as §1
The increased epilame effect permitted by the composition of the invention must be such that this contact angle with a watch oil is greater than 30°, preferably 35°, even more preferably 40°, as such an angle corresponds to very high epilame efficacy (see Renaud 1956, Osowiecki 1962 and Massin 1971).
as §2
Dehydration—Rinsing • The part which received the deposit is placed in an oven at 120° C. for a period ranging from 6 to 15 h (only for rubies and silicon), • The part is brought back to room temperature then immersed in IPA under ultrasound for 2 minutes, • The part is dried under a stream of hot air. […]
The lipophobic effect was evaluated by measuring the contact angles of a test oil having surface tension of 33 mN/m on different surfaces. […]
In accordance with the reference articles in the watch-making literature (Renaud 1956, Osowiecki 1962 and Massin 1971), an angle of over 40° with a watch lubricant corresponds to very high epilame efficacy. […]
On the basis of the kinetics of molecule I.1, the following parameters were used to test the four other thiol-PF and thiol-PFPE molecules (I.2, I.3, I.4, I.5): • Concentration: 10^−3 M for each compound I.1 to I.5 • Solvent: Isopropyl alcohol (IPA) or Biosane T212 (MMCC) • Soaking Time: 30 minutes • Rinsing time: 2 minutes under ultrasound • Drying: hot air
Evaluation of functional properties was carried out by measuring the contact angles between the surface of the watch-making component and the drop of watch-making oil. It is noticeable that the concentration of 10^−3 M gives results that comply with the desired epilame effect (angle greater than 30°) for all molecules I.1 to I.5.
as §3

| SMILES | contact angle H2O ([1]; Au (gold-plated brass)) [°] | contact angle H2O ([1]; Steel) [°] | ranking of contact angles among the molecules [2] | contact angle test oil ([2]; Au (gold-plated brass)) [°] | contact angle test oil ([2]; Steel) [°] | contact angle of the gold-plated brass part with the test oil ([2]; solvent IPA) [°] | contact angle of the gold-plated brass part with the test oil ([2]; solvent MMCC (Biosane T212)) [°] |
| --- | --- | --- | --- | --- | --- | --- | --- |
| O=C(NCCCCCCS)C(F)(OC(F)(F)C(F)(OC(F)(F)C(F)(OC(F)(F)C(F)(OC(F)(F)C(F)(OC(F)(F)C(F)(F)C(F)(F)F)C(F)(F)F)C(F)(F)F)C(F)(F)F)C(F)(F)F)C(F)(F)F (stereo not drawn) [I.3] | 96.4 | 70.2 | highest | 69.0 | 33.5 | 75.7 ± 6 | 63.8 ± 2.8 |
| O=C(NCCS)C(F)(F)C(F)(F)C(F)(F)C(F)(F)C(F)(F)C(F)(F)C(F)(F)F [I.5] |  |  |  |  |  | 67.6 ± 3.6 | 49.5 ± 2.5 |
